In US8017584B2, “GD3-mimetic peptides” (Otsuka Pharmaceutical Co., Ltd., priority 2000, dated 2011):

Assays:
[1] = tested on: binding between GD3 and 4F6; test: Inhibition by nine-residue MAPs of binding between GD3 and 4F6 (Example 5(5), FIG. 6); set-up: species or system mouse; settings: nine-residue MAP compared with the 15 residues
Experimental: Next, in an attempt to determine the domain required for establishing binding to anti-GD3 antibody 4F6 in GD3-mimetic peptides, an MAP of nine N-terminus residues of GD3R3 peptide and an MAP of nine C-terminus residues of the same GD3R3 peptide as shown in FIG. 2 were synthesized, their binding to 4F6 was studied by means of ELISA. ELISA was performed was performed in triplicate, and the values in the graphs are “mean ±SD.”

[2] = tested on: T-cell-rich lymphocytes / IL-2-dependent CTLL2 cells; test: Cell response test: IL-2 activity (3H thymidine up-take of CTLL2 cells) in supernatant of spleen cells of mice immunized with R4 peptide (R4-KLH); assay type: cell-based, mouse; settings: mice immunized with R4 peptide
Experimental: Using a fusion peptide R4-KLH obtained in Example 3 (4) between GD3R4 and KLH or a MAP form fusion peptide R4MAP-KLH created between GD3R4 and KLH, immunization was performed as described in (1) above.
Briefly, an emulsion mixed with an adjuvant (1:1, by volume) was administered to each member of groups of mice, each group consisting of 3 mice (CD-1), in an amount of 100 μL/mouse (for one administration (ip), peptide 30 μg/mouse) for immunization. In the case of R4-KLH, administration was performed every one week for one month, and subsequently every two weeks for one month; and in the case of R4MAP-KLH, every one week for 2 months. In any case, 4 days after the final immunization, blood was collected to thereby prepare antiserum samples.
(§1) The spleen aseptically removed from each of the above-immunized mice was minced in a 10% FCS-supplemented RPMI 1640 medium. By use of a nylon wool column, T-cell-rich lymphocytes were prepared and the cells were counted. The above medium containing the cells in an amount of 10^5 cells per 150 μL was added to each of the wells of a culture plate. PHA was added so as to attain a final concentration of 1 μg/mL. A peptide of the present invention or any of different gangliosides in PBS was added, and the mixture was incubated for 96 hours. A supernatant (100 μL) was obtained from each well. The IL-2 activity of the supernatant was determined through use of IL-2-dependent mouse cells, CTLL2. Briefly, the supernatant (100 μL) diluted 2 to 50-fold with a medium was added to the wells in an amount of 10^4 CTLL2 cells/well, followed by incubation at 37° C. for 48 hours. Subsequently, 3H-thymidine (0.5 μCi) was added to each well, followed by incubation for 6 hours. CTLL2 cells were recovered on a paper filter and counted for 3H.

anti-GD3 antibody 4F6 = test: ELISA of MAPs immobilized at various amounts with 4F6 (Example 5(2), FIG. 3); assay type: binding, mouse; settings: MAPs or GD3 immobilized at various amounts
Source text: (1) In a manner similar to that described in Example 3, peptides of N-terminus 9 amino acid residues or C-terminus 9 amino acid residues of GD3R1, GD3R2, GD3R3, or GD3R4. The nomenclature and sequences of respective peptides employed in the present test are shown in FIG. 2 These were employed as multi-antigen peptides (MAPs). (2) In order to extend the research on bonding between the anti-GD3 antibody 4F6 and each of the GD3-mimetic peptides shown in FIG. 1, multi-antigen peptides (MAPs) were subjected to ELISA. MAP samples having a variety of concentrations shown on the X-axis in FIG. 3 were provided, and each sample was immobilized onto the wells of a 96-well plate. Subsequently, the wells were blocked with a blocking solution (TBS supplemented with 1% BSA, 0.1% skim milk, and 0.02% Tween 20) at 4° C. overnight. 4F6 (hybridoma supernatant: used in the neat form) was added (100 μL/well) for reaction at room temperature for 2 hours. After completion of reaction, the supernatant was discarded, and the wells were washed with a washing solution (TBS supplemented with 1% FBS and 0.05% Tween 20) six times. Subsequently, the wells were allowed to react with peroxidase-labeled anti-mouse IgG (diluted 1,000-fold with a blocking solution) at room temperature for 2 hours. The wells were again washed with a washing solution four times, and the amount of peroxidase enzyme remaining in each well was detected and quantitatively determined with the substrate TMB, whereby binding of MAP to 4F6 was investigated. The test was performed in triplicate, and the values in the graph are “mean ±SD.”

[3] = tested on: T-cell-rich lymphocytes / IL-2-dependent CTLL2 cells; test: Cell response test: IL-2 activity (3H thymidine up-take of CTLL2 cells) in supernatant of spleen cells of mice immunized with GD3; assay type: cell-based, mouse; settings: mice immunized with GD3
Experimental: Similar to the case of immunization with R4-KLH, antiserum samples were also prepared through immunization with GD3 (30 μg).
as §1

[4] = tested on: binding between GD3 and 4F6; test: Inhibition by exogenously added MAPs of binding between GD3 and 4F6 (Example 5(4), FIG. 5); set-up: species or system mouse
Experimental: (4) Next, investigation was made as to whether binding between GD3R3 or GD3R4 and 4F6 occurred at the GD3 binding site of 4F6. To the wells of a plate to which GD3 had been immobilized (100 ng/well), each of the MAP samples having a variety of concentrations shown on the X-axis in FIG. 5 and 4F6 (100 μL/well) were simultaneously added, whereby an inhibitory test was performed. The test was performed in triplicate, and the values in the graph are “mean ±SD.”

[5] = tested on: binding between GD3 and 4F6 (anti-GD3 antibody); test: Inhibition by immobilized MAPs of binding between GD3 and 4F6 (Example 5(3), FIG. 4); set-up: species or system mouse; settings: immobilized MAP or GD3 absorbs 4F6
Experimental: (3) The binding affinity shown in FIG. 3 was investigated in another method. Briefly, MAP samples having a variety of concentrations shown on the X-axis in FIG. 4 were provided. Each sample was immobilized onto the wells of a 96-well plate, and the wells were allowed to react with 4F6 (100 μL/well) at 4° C. overnight. On the following day, the supernatant (80 μL) was collected and added to the wells of another plate to which GD3 had been immobilized in advance (100 ng/well) for reaction at room temperature for 2 hours. After completion of reaction, the amount of antibody 4F6 that had been condensed with GD3 (i.e., that had not been absorbed by MAP) was detected and quantitatively determined through the method described (2) above, whereby inhibitory effect of MAP on binding of GD3 to 4F6 was investigated. The test was performed in triplicate, and the values in the graph are “mean ±SD.”

[6] = PHA 1 μg/mL + stimulant 0.5 μg/ml, supernatant dilution ½
[7] = stimulant 0.5 μg/ml, supernatant dilution 1/20
[8] = stimulant 0.5 μg/ml, supernatant dilution 1/50
[9] = stimulant 0.5 μg/ml, supernatant dilution ⅕
[10] = stimulant 1 μg/ml, supernatant dilution 1/20
[11] = stimulant 1 μg/ml, supernatant dilution 1/50
[12] = stimulant 1 μg/ml, supernatant dilution ½
[13] = stimulant 1 μg/ml, supernatant dilution ⅕
[14] = stimulant 2 μg/ml, supernatant dilution 1/20
[15] = stimulant 2 μg/ml, supernatant dilution 1/50
[16] = stimulant 2 μg/ml, supernatant dilution ½
[17] = stimulant 2 μg/ml, supernatant dilution ⅕
[18] = stimulant 5 μg/ml, supernatant dilution 1/20
[19] = stimulant 5 μg/ml, supernatant dilution 1/50
[20] = stimulant 5 μg/ml, supernatant dilution ½
[21] = stimulant 5 μg/ml, supernatant dilution ⅕

GD3R3C9: MAP of nine C-terminus residues of GD3R3 peptide (YAQRFFLLS)
ability to inhibit binding between GD3 and 4F6 (words, FIG. 6) [1]: comparable ability to the 15 residues

NeuAc α2-8 NeuAc α2-3 Gal β1-4 Glc β1-1 Cer [GD3, reference compound]
3H Thymidine up-take into CTLL2 cells, mean ± SE (4 wells) [2, 6]: 2635 ± 308 | 3H Thymidine up-take into CTLL2 cells, mean ± SE (4 wells) [2, 7]: 850 ± 87 | 3H Thymidine up-take into CTLL2 cells, mean ± SE (4 wells) [2, 8]: 169 ± 25 | 3H Thymidine up-take into CTLL2 cells, mean ± SE (4 wells) [2, 9]: 1792 ± 154 | 3H Thymidine up-take into CTLL2 cells, mean ± SE (4 wells) [2, 10]: 794 ± 82 | 3H Thymidine up-take into CTLL2 cells, mean ± SE (4 wells) [2, 11]: 202 ± 24 | 3H Thymidine up-take into CTLL2 cells, mean ± SE (4 wells) [2, 12]: 2721 ± 284 | 3H Thymidine up-take into CTLL2 cells, mean ± SE (4 wells) [2, 13]: 1658 ± 134 | 3H Thymidine up-take into CTLL2 cells, mean ± SE (4 wells) [2, 14]: 809 ± 74 | 3H Thymidine up-take into CTLL2 cells, mean ± SE (4 wells) [2, 15]: 212 ± 28 | 3H Thymidine up-take into CTLL2 cells, mean ± SE (4 wells) [2, 16]: 2797 ± 295 | 3H Thymidine up-take into CTLL2 cells, mean ± SE (4 wells) [2, 17]: 1722 ± 163 | 3H Thymidine up-take into CTLL2 cells, mean ± SE (4 wells) [2, 18]: 764 ± 68 | 3H Thymidine up-take into CTLL2 cells, mean ± SE (4 wells) [2, 19]: 184 ± 23 | 3H Thymidine up-take into CTLL2 cells, mean ± SE (4 wells) [2, 20]: 2619 ± 316 | 3H Thymidine up-take into CTLL2 cells, mean ± SE (4 wells) [2, 21]: 1636 ± 145 | binding of 4F6 to immobilized sample (words, FIG. 3) (anti-GD3 antibody 4F6): declined from the concentration 0.8 μg/well and higher | 3H Thymidine up-take into CTLL2 cells, mean ± SE (4 wells) [3, 6]: 2795 ± 175 | 3H Thymidine up-take into CTLL2 cells, mean ± SE (4 wells) [3, 7]: 810 ± 72 | 3H Thymidine up-take into CTLL2 cells, mean ± SE (4 wells) [3, 8]: 207 ± 22 | 3H Thymidine up-take into CTLL2 cells, mean ± SE (4 wells) [3, 9]: 1876 ± 152 | 3H Thymidine up-take into CTLL2 cells, mean ± SE (4 wells) [3, 10]: 762 ± 55 | 3H Thymidine up-take into CTLL2 cells, mean ± SE (4 wells) [3, 11]: 186 ± 27 | 3H Thymidine up-take into CTLL2 cells, mean ± SE (4 wells) [3, 12]: 2568 ± 235 | 3H Thymidine up-take into CTLL2 cells, mean ± SE (4 wells) [3, 13]: 1834 ± 169 | 3H Thymidine up-take into CTLL2 cells, mean ± SE (4 wells) [3, 14]: 758 ± 61 | 3H Thymidine up-take into CTLL2 cells, mean ± SE (4 wells) [3, 15]: 197 ± 28 | 3H Thymidine up-take into CTLL2 cells, mean ± SE (4 wells) [3, 16]: 2453 ± 264 | 3H Thymidine up-take into CTLL2 cells, mean ± SE (4 wells) [3, 17]: 1901 ± 188 | 3H Thymidine up-take into CTLL2 cells, mean ± SE (4 wells) [3, 18]: 794 ± 68 | 3H Thymidine up-take into CTLL2 cells, mean ± SE (4 wells) [3, 19]: 179 ± 23 | 3H Thymidine up-take into CTLL2 cells, mean ± SE (4 wells) [3, 20]: 2656 ± 257 | 3H Thymidine up-take into CTLL2 cells, mean ± SE (4 wells) [3, 21]: 1857 ± 185 | inhibitory effect of exogenously added sample on binding between GD3 and 4F6 (words, FIG. 5) ([4]; added simultaneously with 4F6 to GD3 100 ng/well): exhibited inhibitory effect | order of binding strength to 4F6 ([4]; deduced from FIG. 5): GD3>GD3R3>GD3R4 | inhibition of GD3 binding to 4F6 by immobilized sample (words, FIG. 4) [5]: inhibit GD3 from binding to the antibody
